Measurements reported in the NIST ThermoML archive (doi:10.1021/je1002237).

Experiment: xn = mol fraction of the nth substance listed
Details: 101 kPa, Liquid

CCOS(=O)(=O)[O-].CCn1cc[n+](C)c1 [1-ethyl-3-methylimidazolium ethyl sulfate] + CC(C)=O
mass density [kg/m3]
Details	278.15 K	283.15 K	288.15 K	293.15 K	298.15 K	303.15 K	308.15 K
x2 = 0	1251.04	1247.5	1244.04	1240.66	1237.27	1233.89	1230.51
x2 = 0.0048	1250.35	1246.8	1243.35	1239.97	1236.57	1233.18	1229.8
x2 = 0.0098	1249.71	1246.16	1242.72	1239.31	1235.93	1232.54	1229.15
x2 = 0.015	1248.99	1245.43	1242	1238.59	1235.2	1231.8	1228.41
x2 = 0.0249	1247.95	1244.39	1240.97	1237.55	1234.16	1230.76	1227.37
x2 = 0.0399	1245.49	1241.93	1238.51	1235.1	1231.67	1228.26	1224.86
x2 = 0.06	1242.52	1238.99	1235.56	1232.12	1228.69	1225.26	1221.85
x2 = 0.0799	1239.64	1236.15	1232.7	1229.24	1225.79	1222.35	1218.92
x2 = 0.1002	1236.48	1233.02	1229.54	1226.07	1222.61	1219.16	1215.71
x2 = 0.1501	1228.75	1225.24	1221.72	1218.21	1214.71	1211.21	1207.73
x2 = 0.2066	1218.26	1214.69	1211.11	1207.54	1204	1200.46	1196.93
x2 = 0.2998	1200.04	1196.37	1192.71	1189.06	1185.43	1181.81	1178.19
x2 = 0.3999	1176.43	1172.65	1168.88	1165.13	1161.39	1157.66	1153.94
x2 = 0.5	1146.24	1142.32	1138.42	1134.53	1130.65	1126.78	1122.92
x2 = 0.6	1109.44	1105.35	1101.27	1097.2	1093.15	1089.1	1085.07
x2 = 0.7	1062.54	1058.23	1053.92	1049.61	1045.32	1041.02	1036.74
x2 = 0.8	1001.65	997.03	992.4	987.78	983.15	978.52	973.88
x2 = 0.9003	920.34	915.32	910.28	905.21	900.15	895.06	889.95
x2 = 0.95	869.49	864.22	858.92	853.61	848.26	842.89	837.49

CCOS(=O)(=O)[O-].CCn1cc[n+](C)c1 [1-ethyl-3-methylimidazolium ethyl sulfate] + O
mass density [kg/m3]
Details	278.15 K	283.15 K	288.15 K	293.15 K	298.15 K	303.15 K	308.15 K
x2 = 0	1250.63	1247.18	1243.79	1240.39	1237	1233.63	1230.27
x2 = 0.0136	1250.46	1246.91	1243.47	1240.09	1236.7	1233.31	1229.93
x2 = 0.0253	1250.19	1246.63	1243.21	1239.82	1236.42	1233.03	1229.65
x2 = 0.0415	1249.8	1246.24	1242.85	1239.46	1236.06	1232.67	1229.29
x2 = 0.0729	1249.17	1245.66	1242.27	1238.88	1235.48	1232.09	1228.7
x2 = 0.1429	1247.67	1244.26	1240.85	1237.44	1234.04	1230.64	1227.25
x2 = 0.2344	1245.53	1242.12	1238.69	1235.28	1231.86	1228.46	1225.06
x2 = 0.392	1239.94	1236.5	1233.06	1229.63	1226.2	1222.78	1219.36
x2 = 0.5695	1228.84	1225.35	1221.87	1218.47	1214.98	1211.55	1208.12
x2 = 0.7408	1207.89	1204.4	1200.9	1197.39	1193.86	1190.33	1186.78
x2 = 0.9032	1149.37	1146.18	1142.95	1139.65	1136.37	1133.02	1129.61
x2 = 0.9577	1094.19	1091.9	1089.5	1086.99	1084.4	1081.7	1078.89
x2 = 0.984	1045.11	1043.88	1042.43	1040.71	1038.74	1036.44	1033.81
x2 = 0.9923	1023.67	1022.91	1021.88	1020.61	1019.12	1017.42	1015.54
x2 = 0.9963	1012.18	1011.69	1010.85	1009.45	1008.24	1006.56	1004.39

CC(C)=O [acetone] + CCOS(=O)(=O)[O-].CCn1cc[n+](C)c1
x1 = 1
Details	mass density [kg/m3]
278.15 K	807.75
283.15 K	802.15
288.15 K	796.52
293.15 K	790.86
298.15 K	785.13
303.15 K	779.38
308.15 K	773.58

CCO [ethanol] + CCOS(=O)(=O)[O-].CCn1cc[n+](C)c1
x1 = 1
Details	mass density [kg/m3]
278.15 K	802.12
283.15 K	797.89
288.15 K	793.63
293.15 K	789.37
298.15 K	785.08
303.15 K	780.77
308.15 K	776.42

CCOS(=O)(=O)[O-].CCn1cc[n+](C)c1 [1-ethyl-3-methylimidazolium ethyl sulfate] + CCO
mass density [kg/m3]
Details	278.15 K	283.15 K	288.15 K	293.15 K	298.15 K	303.15 K	308.15 K
x2 = 0	1251.4	1247.84	1244.39	1241.01	1237.63	1234.24	1230.87
x2 = 0.016	1249.64	1246.08	1242.65	1239.25	1235.85	1232.45	1229.05
x2 = 0.0254	1248.22	1244.65	1241.24	1237.84	1234.43	1231.03	1227.63
x2 = 0.0425	1246.12	1242.58	1239.16	1235.76	1232.34	1228.94	1225.53
x2 = 0.0877	1240.95	1237.47	1234.04	1230.59	1227.18	1223.75	1220.34
x2 = 0.1178	1235.48	1232.05	1228.59	1225.14	1221.7	1218.26	1214.84
x2 = 0.142	1231.31	1227.85	1224.38	1220.92	1217.47	1214.02	1210.59
x2 = 0.2344	1216.31	1212.79	1209.28	1205.78	1202.3	1198.83	1195.36
x2 = 0.4236	1174.57	1170.96	1167.36	1163.79	1160.21	1156.65	1153.1
x2 = 0.6005	1116.78	1113.06	1109.36	1105.67	1101.99	1098.32	1094.66
x2 = 0.7305	1055.36	1051.54	1047.72	1043.92	1040.12	1036.36	1032.55
x2 = 0.833	987.08	983.14	979.21	975.3	971.37	967.46	963.54
x2 = 0.9022	925.53	921.55	917.81	913.45	910.22	906.22	902.18
x2 = 0.9567	863.73	860.74	856.8	851.32	848.59	844.44	840.27
x2 = 0.9846	826.39	822.21	818.01	813.81	809.59	805.36	801.09
x2 = 0.9924	814.42	810.28	806.17	801.75	797.8	793.53	789.23
x2 = 0.9963	808.01	803.79	799.55	795.3	791.03	786.74	782.41

CCOS(=O)(=O)[O-].CCn1cc[n+](C)c1 [1-ethyl-3-methylimidazolium ethyl sulfate] + ClCCl
x2 = 0
Details	mass density [kg/m3]
278.15 K	1251.04
283.15 K	1247.5
288.15 K	1244.04
293.15 K	1240.66
298.15 K	1237.27
303.15 K	1233.89
308.15 K	1230.51

CO [methanol] + CCOS(=O)(=O)[O-].CCn1cc[n+](C)c1
x1 = 1
Details	mass density [kg/m3]
278.15 K	805.53
283.15 K	800.85
288.15 K	796.16
293.15 K	791.49
298.15 K	786.77
303.15 K	782.05
308.15 K	777.3
